Data: US20140248218A1, “ROS-SENSITIVE FLUORESCENT PROBES” (The Regents of the University of California, priority 2013, published 2014)

How the values were obtained:
[1] = Fluorescence response of the probes to H2O2 (luminescence spectroscopy, fluorescence turn-on); assay type: physicochemical; conditions: for increase in fluorescence in response to excess H2O2 (fluorescence turn-on): 1 μM probe, 50 mM HEPES pH 7.5, H2O2 300 eq (300 μM), ratio of integrated final and initial emission; for change of emission on treatment with H2O2: 50 mM HEPES pH 7.5; for relation of relative emission to H2O2 concentration: 15 min incubation with H2O2, integrated emission
Description: Fluorescence emission spectra were recorded with a Perkin-Elmer LS-55 fluorescence spectrometer. To a 2.0 mL solution of probe of varying concentrations in HEPES buffer (50 mM, pH 7.5) was added H2O2 in HEPES to monitor fluorescence turn-on. Spectra were monitored over time at room temperature with quartz cuvettes.
To quantitate the fluorescence turn-on, a sample of each probe (1 μM in 50 mM HEPES pH 7.5) was prepared. An excess of H2O2 (300 eq, 300 μM) was added to the latent fluorophore and spectra were recorded until no increase in fluorescence intensity was observed, signifying a complete reaction. The collected initial and final emission spectrum were integrated, and the ratio reports the fluorescence turn on.
FBBBE and CBBE were evaluated for H2O2 sensitivity under simulated physiological conditions (50 mM HEPES, pH 7.5). For FBBBE, the installation of the benzyl protecting group forces the compound to remain in the closed lactone form, rendering FBBBE (and FBn) nonfluorescent. […] Along with the observed fluorescence increase, the absorption spectrum of FBBBE considerably changed upon H2O2 addition with a large increase in the visible absorption band (λmax=494 nm). The final spectrum recorded was identical to that of an authentic sample of fluorescein, providing additional proof that the probe was undergoing complete deprotection to the desired product (FIG. 7). […] FBBBE was incubated with different concentrations of H2O2 for 15 min and then the emission spectrum was collected.
The coumarin-based compound, CBBE, was nonfluorescent in the absence of H2O2. […] (FIG. 12).
(§1) Additional studies were performed to quantify the fluorescence turn-on for each probe to directly compare the sensitivity to H2O2. […] To determine the sensitivity of these probes in a more quantitative fashion, pseudo first-order kinetic measurements were performed using UV-Vis absorption spectroscopy. The observed rate constants for FBBBE and CBBE activation by H2O2 were kobs=3.1×10-5 s-1 and kobs=4.6×10-3 s-1, respectively. It was determined that the deprotection of CBBE was much faster than FBBBE. This may be likely due to the fact that FBBBE contains two boronic ester triggers that are required for complete release of the fluorophore. Recently, it has been shown that boronic ester based probes can be sensitive to other biologically relevant ROS, such as hypochlorite (—OCl) and peroxynitrite (—ONOO).^[26]

[2] = Solubility in aqueous buffer; assay type: physicochemical; conditions: ~1% DMSO (by volume), micromolar concentrations
Source text: The corresponding control compound lacking the boronic ester trigger was also synthesized for evaluation (FIG. 3, CBn). Both CBBE and FBBBE were quite soluble in aqueous buffer, using only ˜1% DMSO (by volume) when preparing samples at micromolar concentrations.

[3] = Fluorescent response of probe to hypochlorite compared with H2O2; assay type: physicochemical; conditions: 1 μM probe, 100 μM ROS, 50 mM HEPES pH 7.5, 25° C.
Description: FIG. 16. Histograms of fluorescent responses of 1 μM FBBBE to hydrogen peroxide (H2O2) and hypochlorite (OCl^−): (Data shown are for 100 μM of each ROS) hydrogen peroxide and hypochlorite were delivered from 30% and 5% aqueous solutions, respectively and spectra were acquired in 50 mM HEPES (pH 7.5) wherein all data were obtained after incubation with the appropriate ROS at 25° C.; the collected emission was integrated between […] (λex=480 nm), and bars represent relative responses (left to right) at 5 (white), 15 (light gray), 30 (gray), 45 (dark gray), and 60 min (black) after addition of ROS.
as §1, with “Recently, it has been shown that boronic ester based probes can be sensitive to other biologically relevant ROS, such as hypochlorite (—OCl) and peroxynitrite (—ONOO).^[26]” left out

[4] = system: RAW 264.7 cells; assay: Confocal fluorescence imaging of H2O2 in RAW 264.7 macrophages; assay type: cell-based, Murine; conditions: for fluorescence in cells treated with PBS, LPS or H2O2: 50 μM compound 1 h, fixed RAW 264.7 cells
Description: RAW 264.7 macrophages were grown in DMEM supplemented with 10% heat-inactivated fetal bovine serum, 2 mM L-glutamine, 100 μg/mL penicillin, and 100 μg/mL streptomycin (Life Technologies, Carlsbad, Calif.). For confocal microscopy, the RAW 264.7 cells were seeded at 250,000 in glass bottom 35 mm dishes (MatTek Corporation, Ashland, Mass.) and post-adhering (5 h), some dishes were treated with 1 μg/mL of LPS (Sigma-Aldrich, St. Louis, Mo.) for 24 h. Other dishes were treated the next day after plating with either 100 μM H2O2 for 1 h or PBS for 1 h. Cells were washed twice with PBS and fixed in ice-cold 95% ethanol for 15 min. Cells were twice rinsed with PBS and incubated with either 50 μM probe (FBBBE) or 50 μM control (FBn) for 1 h at room temperature. Cells were washed twice with PBS and coverslips were mounted over cells using Aqua Mount (Thermo Scientific, Waltham, Mass.). Confocal images were obtained at 80× magnification on an Olympus FV1000 confocal laser scanning microscope. Images were processed using ImageJ software (NIH).
FBBBE was examined for H2O2 detection in biological samples via confocal microscopy. Murine macrophage RAW 264.7 cells were treated with PBS buffer (unstimulated cells), lipopolysaccharide (LPS, stimulated cells), or with exogenous H2O2, followed by incubation with either FBBBE (FIG. 5a-c) or FBn (FIG. 5d-f). The inflammatory effects of LPS in macrophages are well established and result in a burst of reactive oxygen species and reactive nitrogen intermediates among other inflammatory signatures.^[27] […] The cells are washed and fixed prior to incubating with the probe.

[5] = system: mouse brain; assay: Confocal fluorescence imaging of H2O2 in mouse brain tissue sections (ex vivo); conditions: for fluorescence turn-on in brain tissue: 50 μM compound 1 h, sections incubated with PBS or 100 μM H2O2
Description: (§2) 3-4 week old female C57BL/6J mice were purchased from Jackson Laboratory (Bar Harbor, Me.). Mice were sacrificed and perfused with sterile PBS. The brain and spinal cord were harvested and imbedded in Tissue-Tek® OCT Compound (Sakura Finetek USA, Torrance, Calif.) and frozen in dry ice before storage at −80° C. All animal studies were reviewed and approved by the University of California, San Diego Institutional Animal Care and Use Committee (La Jolla, Calif.).
For confocal microscopy, the frozen tissue was cut into 10-μm sections on a Leica cryomicrotome and mounted on slides. Tissue sections were fixed in ice-cold 95% ethanol for 15 min and rehydrated in PBS for 5 min at room temperature in a humidity chamber. Tissue sections were either incubated with PBS or 100 μM H2O2 for 1 h at room temperature in a humidity chamber, followed by a 1 h incubation with either 50 μM probe (FBBBE) or 50 μM control (FBn) and a 10 min nuclear stain (DAPI, 4′,6-diamidino-2-phenylindole). The sections were rinsed in PBS and hydrated in water. Coverslips were mounted using Aqua Mount (Thermo Scientific, Waltham, Mass.). Confocal images were obtained at 40× or 80× magnification on an Olympus FV1000 confocal laser scanning microscope. Images were processed using ImageJ software.
Cellular studies were extended to a more physiologically relevant model for H2O2 detection. H2O2 is particularly active in the brain and neuronal tissue, triggered by the metabolism of neurotransmitters.^[28] The brain and spinal cord from 3-4 week old female C57BL/6J mice were excised, frozen in OCT medium, and 10 μm sagittal cryosections were prepared for staining with FBBBE and FBn. At this age, the mice undergo extensive neuronal development and remodeling. Such activity has been associated with higher levels of neurotransmitter activity and ROS in both neurons and microglial cells in the brain. Consistent with the previous experiments, the sections were either incubated with PBS (unstimulated) or H2O2 (FIG. 6). […]

[6] = system: mouse spinal cord; assay: Confocal fluorescence imaging of H2O2 in mouse spinal cord tissue sections (ex vivo); conditions: 50 μM probe 1 h
Description: as §2
For confocal microscopy, the frozen tissue was cut into 10-μm sections on a Leica cryomicrotome and mounted on slides. Tissue sections were fixed in ice-cold 95% ethanol for 15 min and rehydrated in PBS for 5 min at room temperature in a humidity chamber. Tissue sections were either incubated with PBS or 100 μM H2O2 for 1 h at room temperature in a humidity chamber, followed by a 1 h incubation with either 50 μM probe (FBBBE) or 50 μM control (FBn) and a 10 min nuclear stain (DAPI, 4′,6-diamidino-2-phenylindole). The sections were rinsed in PBS and hydrated in water. […]
To further investigate whether FBBBE is activated by truly endogenous levels of H2O2, the probe was evaluated in the spinal cord. […] The lack of fluorescence signal from the H2O2-treated samples may be due to an inability of FBBBE to penetrate the spinal cord tissues, which is then subsequently washed away before the image is taken.

[7] = cited from earlier work

| Compound | increase in fluorescence in response to excess H2O2 (fluorescence turn-on) [1] [fold] | change of emission on treatment with H2O2 [1] | relation of relative emission to H2O2 concentration [1] | solubility in aqueous buffer [2] | fluorescence in cells treated with PBS, LPS or H2O2 [4] | fluorescence turn-on in brain tissue [5] | other results |
| --- | --- | --- | --- | --- | --- | --- | --- |
| CC1(C)OB(c2ccc(COc3ccc4ccc(=O)oc4c3)cc2)OC1(C)C [CBBE, 7-((4-(4,4,5,5-tetramethyl-1,3,2-dioxaborolan-2-yl)benzyl)oxy)-2H-chromen-2-one] | 57 | quickly turned on | linear correlation | quite soluble |  |  |  |
| O=c1ccc2ccc(OCc3ccccc3)cc2o1 [CBn, 7-(benzyloxy)-2H-chromen-2-one, reference compound] |  | no change |  |  |  |  |  |
| CC1(C)OB(c2ccc(COc3ccc4c(c3)Oc3cc(OCc5ccc(B6OC(C)(C)C(C)(C)O6)cc5)ccc3C43OC(=O)c4ccccc43)cc2)OC1(C)C [FBBBE, 3′,6′-bis((4-(4,4,5,5-tetramethyl-1,3,2-dioxaborolan-2-yl)benzyl)oxy)-3H-spiro[isobenzofuran-1,9′-xanthen]-3-one] | 52 | large increase in fluorescence | linear correlation | quite soluble | observed in all cells | sufficient to activate the probe | sensitivity to other ROS (OCl-) compared to H2O2 [3]: less sensitive; mean fluorescence, PBS or H2O2 vs LPS treated cells ([4]; 50 μM probe, 1 μg/mL LPS 24 h, p<0.001): statistically different; mean fluorescence, PBS vs H2O2 treated cells ([4]; 50 μM probe, 100 μM H2O2 1 h): not statistically different; effect of exogenous H2O2 on fluorescence in brain tissue ([5]; 50 μM probe, 100 μM H2O2 vs PBS): did not alter the fluorescence levels observed; fluorescence in spinal cord tissue with exogenous H2O2 ([6]; 100 μM H2O2, compared to brain tissue): minimal amount of fluorescence; probe activation in unstimulated spinal cord tissue ([6]; PBS): essentially inactive |
| O=C1OC2(c3ccc(OCc4ccccc4)cc3Oc3cc(OCc4ccccc4)ccc32)c2ccccc21 [FBn, 3′,6′-bis(benzyloxy)-3H-spiro[isobenzofuran-1,9′-xanthen]-3-one, reference compound] |  | does not show any changes |  |  | no turn on of fluorescence in any of the cells | no fluorescence turn on was observed |  |
| O=C1OC2(c3ccc(O)cc3Oc3cc(O)ccc32)c2ccccc21 [Fluorescein] |  |  |  |  |  |  | water solubility [7]: excellent water solubility |
